Active and inactive are the calls of the source. No cut-off for these calls is given here.
Columns and labels:
[1] = Selectivity ratio of IC50 for antiproliferative activity against human HT-1080 cells in presence of ferroptosis inhibitor Fer-1 to IC50 for antiproliferative activity against human HT-1080 cells; type: functional
A549 = assay: Antiproliferative activity against human A549 cells measured after 72 hrs by MTT assay; type: functional, cell-based; details: A549, 72 h
[2] = Selectivity index, ratio of IC50 for HUVEC to IC50 for human HT-1080; type: toxicity; details: HUVEC versus HT-1080 cells, read-out: Ratio IC50
HT-1080 [3] = assay: Antiproliferative activity against human HT-1080 cells measured after 72 hrs in presence of ferroptosis inhibitor Fer-1 by MTT assay; type: functional, cell-based; details: HT-1080, 72 h
[4] = target: T1, Phospholipid hydroperoxide glutathione peroxidase GPX4 (Homo sapiens) (UniProt P36969); assay: Inhibition of GPX4 activity in human HT-1080 cells assessed as down regulation of GPX4 level at 2 uM measured after 24 hrs by Western blotting analysis; type: cell-based
T1 sequence (whole entry): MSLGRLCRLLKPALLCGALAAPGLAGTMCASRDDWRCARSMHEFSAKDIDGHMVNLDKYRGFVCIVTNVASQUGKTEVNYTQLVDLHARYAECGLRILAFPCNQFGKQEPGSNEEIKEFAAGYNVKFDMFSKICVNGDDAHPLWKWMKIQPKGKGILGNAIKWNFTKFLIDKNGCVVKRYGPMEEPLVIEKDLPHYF

[5] = Cytotoxicity against HUVEC measured after 72 hrs by MTT assay; type: toxicity, cell-based; details: human
HT-1080 [6] = assay: Antiproliferative activity against human HT-1080 cells measured after 72 hrs by MTT assay; type: functional, cell-based; details: HT-1080, 72 h
MGC-803 = assay: Antiproliferative activity against human MGC-803 cells measured after 72 hrs by MTT assay; type: functional, cell-based; details: MGC-803, 72 h
[7] = Cytotoxicity against human GES1 cells measured after 72 hrs by MTT assay; type: toxicity, cell-based
4T1 = assay: Antiproliferative activity against mouse 4T1 cells measured after 72 hrs by MTT assay; type: functional, cell-based; details: 4T1, 72 h
[8] = Selectivity index, ratio of IC50 for human GES1 cells to IC50 for human HT-1080; type: toxicity; details: GES1 cells versus HT-1080 cells, read-out: Ratio IC50
HT-1080 [9] = assay: Reduction in GPX4 mRNA level in human HT-1080 cells at 2 uM measured after 24 hrs by qRT-PCR analysis; type: functional, cell-based
HT-1080 [10] = assay: Induction of ROS generation in human HT-1080 cells assessed as intracellular ROS level at 2 uM measured after 24 hrs by DCFH-DA probe based flow cytometry (reference value: 33%); type: functional

SMILES	Ratio IC50 [1]	IC50 (A549) [µM]	selectivity ratio [2]	IC50 (HT-1080 [3]) [µM]	inhibition [4]	IC50 at 72 h [5] [µM]	IC50 (HT-1080 [6]) [µM]	IC50 (MGC-803) [µM]	IC50 at 72 h [7] [µM]	IC50 (4T1) [µM]	selectivity ratio [8]	Activity (HT-1080 [9])	Activity (HT-1080 [10]) [%]
COc1cc(N(Cc2cc3ccccc3s2)C(=O)CCl)cc(OC)c1OC	1.15	> 20	2.8	4.13	Active; Significant Down Regulation Observed	10.5	3.59	2.08	68.8	> 20	18.4	–	–
O=C(CCl)N(Cc1ccsc1)c1ccccc1	–	> 20	–	–	–	–	4.73	19.8	–	7.34	–	–	–
Cc1onc(C(=O)N(Cc2csc3ccccc23)c2ccccc2)c1[N+](=O)[O-]	–	> 20	–	–	–	–	> 20	> 20	–	> 20	–	–	–
COc1cc(N(Cc2csc3ccccc23)C(=O)c2noc(C)c2[N+](=O)[O-])cc(OC)c1OC	–	> 20	–	–	–	–	> 20	> 20	–	10.2	–	–	–
COc1cc(N(Cc2ccc3ccccc3n2)C(=O)c2noc(C)c2[N+](=O)[O-])cc(OC)c1OC	–	18.9	–	–	–	–	> 20	> 20	–	12.9	–	–	–
COC(=O)c1ccc([C@H]2c3[nH]c4ccccc4c3C[C@H](C(=O)OC)N2C(=O)CCl)cc1	1.88	> 20	26.6	2.28	Active	32.1	–	12.2	62.3	18.4	51.5	Active	87.6
O=C(CCl)N(Cc1cc2ccccc2[nH]1)c1ccccc1	–	> 20	–	–	–	–	15.3	13.8	–	> 20	–	–	–
O=C(CCl)N(Cc1cc2ccccc2s1)c1ccc(F)cc1	–	> 20	–	–	–	–	10.4	7.09	–	> 20	–	–	–
O=C(CCl)N(Cc1cc2ccccc2[nH]1)c1ccc(F)cc1	–	> 20	–	–	–	–	9.26	7.32	–	12.4	–	–	–
O=C(CCl)N(Cc1csc2ccccc12)c1ccccc1	–	> 20	–	–	–	–	11.2	10.3	–	> 20	–	–	–
O=C(CCl)N(Cc1csc2ccccc12)c1cccc(C(F)(F)F)c1	–	19.3	–	–	–	–	11.1	7.95	–	> 20	–	–	–
O=C(CCl)N(Cc1csc2ccccc12)c1ccc(F)cc1	–	> 20	–	–	–	–	12.3	13.4	–	> 20	–	–	–
O=C(CCl)N(Cc1cc2ccccc2s1)c1ccccc1	–	15.4	–	–	–	–	18	6.73	–	> 20	–	–	–
O=C(CCl)N(Cc1ccccc1)Cc1csc2ccccc12	–	> 20	–	–	–	–	> 20	> 20	–	8.52	–	–	–
O=C(CCl)N(Cc1ccoc1)c1ccc(F)cc1	–	> 20	–	–	–	–	6.06	16.7	–	12.1	–	–	–
COc1cc(N(Cc2ccsc2)C(=O)CCl)cc(OC)c1OC	1.74	> 20	4.27	6.3	Active; Significant Down Regulation Observed	15.4	3.61	14.1	62.3	11.2	17.3	–	–
COc1cc(N(C)Cc2csc3ccccc23)cc(OC)c1OC	–	–	–	–	–	–	–	–	–	–	–	inactive	–
CCCCN(Cc1cc2ccccc2s1)C(=O)CCl	1.5	> 20	2.15	6	Active; Significant Down Regulation Observed	8.58	3.73	> 20	123	5.31	30.9	–	–
O=C(CCl)N(Cc1ccsc1)c1ccc(F)cc1	–	> 20	–	–	–	–	5.21	15.1	–	> 20	–	–	–

SMILES	Ratio IC50 [1]	IC50 (A549) [µM]	selectivity ratio [2]	IC50 (HT-1080 [3]) [µM]	inhibition [4]	IC50 at 72 h [5] [µM]	IC50 (HT-1080 [6]) [µM]	IC50 (MGC-803) [µM]	IC50 at 72 h [7] [µM]	IC50 (4T1) [µM]	selectivity ratio [8]	Activity (HT-1080 [9])	Activity (HT-1080 [10]) [%]
COc1ccc(N(Cc2csc3ccccc23)C(=O)CCl)cc1OC	–	15.2	–	–	–	–	4.22	2.42	–	> 20	–	–	–
COc1ccc(N(Cc2c[nH]c3ccccc23)C(=O)CCl)cc1	–	> 20	–	–	–	–	12.4	11.7	–	15.8	–	–	–
COc1ccc(N(Cc2cc3ccccc3[nH]2)C(=O)CCl)cc1	–	> 20	–	–	–	–	11.8	> 20	–	18.8	–	–	–
COc1ccc(N(Cc2csc3ccccc23)C(=O)CCl)cc1	–	> 20	–	–	–	–	14	16.9	–	> 20	–	–	–
COc1cc(N(Cc2ccsc2)C(=O)c2noc(C)c2[N+](=O)[O-])cc(OC)c1OC	–	> 20	–	–	–	–	> 20	> 20	–	14.4	–	–	–
O=C(CCl)N(Cc1cc2ccccc2s1)c1cccc(C(F)(F)F)c1	–	> 20	–	–	–	–	13.6	12	–	17.8	–	–	–
O=C(CCl)N(Cc1ccoc1)c1ccccc1	–	> 20	–	–	–	–	14.2	> 20	–	14.1	–	–	–
COc1ccc(N(Cc2csc3ccccc23)C(=O)c2noc(C)c2[N+](=O)[O-])cc1OC	2.98	> 20	6.06	15.6	Active; Significant Down Regulation Observed	31.8	5.25	> 20	87.3	3.48	16.6	–	–
O=C(CCl)N(Cc1c[nH]c2ccccc12)c1ccccc1	–	> 20	–	–	–	–	7.86	13.2	–	> 20	–	–	–
CCOc1ccccc1-n1c(C(C)N2CCN(C(=O)COc3ccc(Cl)cc3)CC2)nc2ccccc2c1=O (configuration not stated) [ERASTIN]	–	> 20	–	–	–	–	3.54	> 20	–	12.7	–	–	–
O=C(CCl)N(Cc1c[nH]c2ccccc12)c1ccc(F)cc1	–	16	–	–	–	–	7.21	9.09	–	> 20	–	–	–
COc1cc(N(Cc2ccoc2)C(=O)c2noc(C)c2[N+](=O)[O-])cc(OC)c1OC	–	> 20	–	–	–	–	> 20	> 20	–	> 20	–	–	–
COc1ccc(N(Cc2cc3ccccc3s2)C(=O)CCl)cc1	–	18.3	–	–	inactive	–	> 20	10.1	–	> 20	–	–	–
COc1ccc(N(Cc2csc3ccccc23)C(=O)CCl)cc1Cl	–	> 20	–	–	–	–	3.99	> 20	–	7.77	–	–	–
COc1ccc(N(Cc2cc3ccccc3s2)C(=O)CCl)cc1OC	–	16.9	–	–	–	–	8.98	1.8	–	> 20	–	–	–
Cc1onc(C(=O)N(Cc2csc3ccccc23)c2ccc(F)cc2)c1[N+](=O)[O-]	–	> 20	–	–	–	–	> 20	> 20	–	10.2	–	–	–
COc1ccc(N(Cc2c[nH]c3ccccc23)C(=O)CCl)cc1OC	–	16.7	–	–	–	–	15	7.19	–	> 20	–	–	–
COc1cc(N(Cc2ccoc2)C(=O)CCl)cc(OC)c1OC	–	> 20	–	–	–	–	4.21	> 20	–	5.97	–	–	–
